Measured values from patent US20050143291A1, “Methods and compositions for modulating apoptosis” (priority 2003, published 2005).

Tests used:
[1] = tested on: endogenous GRP78; test: Immunoblot of endogenous GRP78 in MDA-MB-435 cells infected with 320 bp AS adenovirus, with or without etoposide; assay type: cell-based, human; settings: mock-infected, etoposide treatment by itself
Description: The same cells were infected with the GFP negative control adenovirus. […] Thus, both the full length and the 320 bp version of the AS construct targeted against GRP78 blocked expression of GRP78 in a 293T test system.
Western Blotting—The cell lysate was prepared in radioimmune precipitation assay buffer and subjected to immunoblot with antibodies against GRP78, GRP94, topoisomerase II, caspase-7, and α-actin as described. Nitrocellulose membranes containing the transferred proteins were blocked in Tris-buffered saline containing 5% non-fat dry milk and 0.1% Tween 20 for 1 h at room temperature and were probed with the respective primary antibodies. For GRP78, an anti-KDEL mouse monoclonal antibody (SPA-827), an anti-GRP78 rabbit polyclonal antibody directed against the carboxyl ten amino acids of rat GRP78 (SPA-826) (StressGen, Victoria, Canada), or an anti-hamster GRP78 rabbit polyclonal antibody at 1:3000, 1:2000, and 1:5000 dilution, respectively, was used. […]

[2] = tested on: CHO cells; test: DNA fragmentation assay, CHO cells; assay type: cell-based, Chinese hamster; settings: etoposide-treated CHO cells, compared with C.1 cells; 100 μM for 12 h, harvested after 48 h
Description: The DNA fragmentation assays were performed using an apoptosis DNA ladder kit (Roche Molecular Biochemicals) according to manufacturer's instructions.
(§1) The apoptotic cells were identified by annexin V labeling.

[3] = tested on: caspase-7; test: Caspase-7 activation in etoposide-treated CHO cells (Western blot); assay type: cell-based, Chinese hamster; settings: 100 μM etoposide for 6 h, harvested after 24 h
Description: FIG. 5, Panel A depicts the effect of GRP78 overexpression on topoisomerase II expression and caspase-7 activation. Total protein lysates were prepared from non-treated (Ctrl) or etoposide-treated (Etop) CHO and C.1 cells.
Among the executor caspases, caspase-7 has been reported to be associated with the ER. Upon induction of apoptosis, procaspase-7 (35 kDa) is first converted into a 32-kDa intermediate, which is further processed into active 20- and 11-kDa subunits. […] Upon longer exposure of the autoradiogram, the active 20- and 11-kDa forms were evident in the etoposide-treated cells. When GRP78 was overexpressed, a low level of caspase-7 activation was detected in both the non-treated and etoposide-treated cells. […] In addition, upon addition of cytochrome c, caspase-7 activation was higher in CHO cells than C.1 cells, as evidenced by the increase in the active 20- and 11-kDa forms in the CHO samples compared with the C.1 samples.
The cells were suspended in 5 volumes of a hypotonic buffer (5 mM Tris-HCl, pH 7.4, 5 mM KCl, 1.5 mM MgCl2, 0.1 mM EGTA, pH 8.0, and 1 mM dithiothreitol) in the presence of 2 μg/ml leupeptin, pepstatin, and aprotinin protease inhibitors. After incubation on ice for 20 min, sucrose was added to a final concentration of 250 mM, and the cells were disrupted by douncing eight times in a 1-ml Wheaton Dounce homogenizer. […]

[4] = tested on: CHO cells; test: Annexin V staining and FACS analysis, CHO cells; assay type: cell-based, Chinese hamster; settings: 30 μM etoposide for 6 h
Source text: (§2) FIG. 3, Panel A depicts GRP78 overexpression protecting cells from etoposide-induced apoptosis. […] Viable cells are those with low annexin or no annexin and PI staining (lower left panel). Early stage apoptotic cells are represented by high annexin and low PI staining (lower right panel), later stage apoptotic cells represented by high annexin and high PI staining (upper right panel), and necrosis is represented by cells with high PI and low annexin staining (upper left panel).
(§3) Annexin V Staining and FACS Analysis—CHO, C.1, and T24/83 cells were trypsinized, washed twice with ice-cold PBS, pH 7.4, and resuspended in […] binding buffer (10 mM HEPES, pH 7.4, 140 mM NaCl, 2.5 mM CaCl2 at a concentration of 1×10^6 cells/ml. One hundred μl of cell suspension was transferred to 5-ml plastic tubes, and 5 μl of annexin V-fluorescein isothiocyanate (PharMingen) and 4 μl of 0.5 mg/ml PI were added. The cells were gently vortexed and incubated in the dark at room temperature for 20 min. Four hundred μl of binding buffer was added to each tube, and annexin V staining was analyzed by flow cytometry within 1 h. Cells negative for both PI and annexin V staining are live cells, annexin V positive staining cells are early apoptotic cells, and PI positive and annexin V positive staining cells are primarily cells in late stages of apoptosis.
as §1

[5] = tested on: T24/83-pcDNA cells; test: Annexin V staining and FACS analysis, T24/83-pcDNA cells; assay type: cell-based, human; settings: versus non-treated
Description: as §3
(§4) A pair of stably transfected human transitional bladder carcinoma T24/83 cell lines selected and cultured under identical conditions, were used to determine the effect of GRP overexpression on neoplastic cells. The cell line, referred to as T24/83-GRP78, overexpressed human GRP78, and the other line, referred to as T24/83-pcDNA, was stably transfected with the empty expression vector pcDNA (28).

[6] = tested on: T24/83-GRP78 cells; test: Clonogenic survival assays, T24/83 cells overexpressing GRP78; assay type: cell-based, human; settings: versus T24/83-pcDNA cells
Description: (§5) Clonogenic Survival Assays—Four thousand cells were seeded into 10-cm-diameter dishes. […] After drug treatment, the cells were grown in fresh medium for 10 to 14 days. The colonies were washed with ice-cold PBS, fixed with methanol, and stained with 10% Giemsa staining solution. The surviving fraction was determined by dividing the number of the surviving colonies in the drug-treated cells by the number of colonies in the non-treated control groups.

[7] = tested on: T24/83-GRP78 cells; test: Annexin V staining and FACS analysis, T24/83-GRP78 cells; assay type: cell-based, human; settings: versus non-treated
Description: as §3, §4

[8] = tested on: GRP78 Overexpression cells; test: % Survival (Colony Assay), GRP78 overexpression; assay type: cell-based; settings: for % Survival (Colony Assay): GRP78 Overexpression
Description: (§6) Experiments were also performed to determine the anti-apoptotic effect conferred by overexpression of GRP78. This task was completed.
as §5

[9] = tested on: C.1 cells (CHO derivative overexpressing GRP78); test: Annexin V staining and FACS analysis, C.1 cells; assay type: cell-based, Chinese hamster; settings: 30 μM etoposide for 6 h
Source text: as §2, §3, §1

[10] = tested on: Control cells; test: % Survival (Colony Assay), control cells; assay type: cell-based
Description: as §6, §5

Question: Which “reduction of the amount of endogenous GRP78” value [1] does the source give for `COc1cc([C@@H]2c3cc4c(cc3[C@@H](O[C@@H]3O[C@@H]5CO[C@@H](C)O[C@H]5[C@H](O)[C@H]3O)[C@H]3COC(=O)[C@H]23)OCO4)cc(OC)c1O` [Etoposide] here?
Answer: The value was “about 40%”.

Question: What about the DNA fragmentation [2] of the same molecule?
Answer: Its DNA fragmentation is “More extensive DNA fragmentation”.

Question: What about the caspase-7 activation [3] of the same molecule?
Answer: The caspase-7 activation was “activation of caspase-7”.

Question: And the “percentage of apoptotic cells (annexin V labeling) upon etoposide treatment” value ([4]; non-treated 9%)?
Answer: The value was 90%.

Question: What about the “increase of the percentage of apoptotic cells upon etoposide treatment” value ([4]; versus non-treated) of the same molecule?
Answer: The value was 10 fold.

Question: What about the “increase of the percentage of annexin V-labeled cells by etoposide treatment” value [5] of the same molecule?
Answer: The value was 2.7 fold.

Question: What about the “resistance of T24/83 cells overexpressing GRP78 (clonogenic survival)” value [6] of the same molecule?
Answer: The value was “more resistance”.

Question: And the “increase of the percentage of annexin V-labeled cells by etoposide treatment” value [7]?
Answer: Its value is 1.4 fold.

Question: And the “% Survival (Colony Assay)” value ([8]; etoposide 0.2 μM)?
Answer: The value was 93%.

Question: And the “% Survival (Colony Assay)” value ([8]; etoposide 0.4 μM)?
Answer: The value was 93%.

Question: And the “% Survival (Colony Assay)” value ([8]; etoposide 0.8 μM)?
Answer: Its value is 77%.

Question: What about the “% Survival (Colony Assay)” value ([8]; etoposide 1.6 μM) of the same molecule?
Answer: The value was 63%.

Question: What about the “effect of GRP78 overexpression on sensitivity to the drug” value ([8]; GRP78 overexpression versus control) of the same molecule?
Answer: The value was “confers resistance”.

Question: What about the “percentage of apoptotic cells (annexin V labeling) upon etoposide treatment” value ([9]; non-treated 15%) of the same molecule?
Answer: Its value is 70%.

Question: And the “increase of the percentage of apoptotic cells upon etoposide treatment” value ([9]; versus non-treated)?
Answer: The value was 4.7 fold.

Question: What about the “% Survival (Colony Assay)” value ([10]; etoposide 0.2 μM) of the same molecule?
Answer: The value was 71%.

Question: And the “% Survival (Colony Assay)” value ([10]; etoposide 0.4 μM)?
Answer: The value was 67%.

Question: What about the “% Survival (Colony Assay)” value ([10]; etoposide 0.8 μM) of the same molecule?
Answer: The value was 26%.

Question: What about the “% Survival (Colony Assay)” value ([10]; etoposide 1.6 μM) of the same molecule?
Answer: The value was 1.5%.
